Assay results published in PMC6696208, “Antityrosinase, Antioxidant, and Cytotoxic Activities of Phytochemical Constituents from Manilkara zapota L. Bark” (Molecules, 2019).
Where “and” joins values, the source holds several entries; their conditions need not be identical. Equal values may be shown once. Read-outs that look alike come from different tables or passages of the source. Marks after values point to notes of the source that are not given here.

Experiments:
[1] = DPPH radical scavenging assay; details: mean ± SD of three replicates
Method: The DPPH radical scavenging activity was determined by a modified method based on a previously described procedure. Briefly, a solution containing 50 µL of sample (100 mg/mL) was dissolved in DMSO/ethanol (1:4 v/v) and 150 µL of 0.05 M DPPH solution in methanol. Then, the reaction mixture was mixed and was incubated in the dark for 30 min at 37 °C. The absorbance of the reaction mixture was measured at 517 nm. Trolox was used as a positive control. The DPPH scavenging effect was calculated according to the following equation:(3) DPPH radical scavenging activity (%)=[1−(As−Ab)/Ad]× 100. where As is the absorbance of the sample mixed with DPPH solution, Ab is the absorbance of the sample without DPPH solution, and Ad is the absorbance of DPPH solution without the sample.

[2] = ABTS radical scavenging assay; details: mean ± SD of three replicates
Method: The ABTS radical scavenging capacity was determined using a modified version of a previously described procedure. The stock solution included 100 mL of 7.0 mM ABTS solution in methanol and 100 mL of 2.4 mM aqueous solution of potassium persulfate. Then, the reaction mixture was left in the dark for 14 h at 37 °C. The solution of 1 mL of ABTS solution was diluted with 60 mL of absolute ethanol to determine an absorbance of 0.700 ± 0.001 units at 734 nm using a spectrophotometer. Next, 500 µL of the sample (100 mg/mL) was reacted with 500 µL of ABTS solution and the absorbance was measured at 734 nm after 7 min of incubation using a spectrophotometer. The results were compared with Trolox as a standard, and the percentage of scavenging activity was calculated according to the following equation:(4) ABTS radical scavenging activity (%)=[(Ac−As)/Ac]×100. where Ac is the absorbance of ABTS radicals with ethanol and As is the absorbance of ABTS radicals with the test sample or positive control.

[3] = system: HepG2 liver carcinoma cell line; assay: MTT cytotoxicity assay, HepG2; type: cell-based; details: Homo sapiens, 72 h
Method: (§1) Cytotoxic activity was evaluated in vitro using the microtitration colorimetric method of MTT reduction. In this study, five human carcinoma cell lines were used, including BT474 (ATCC® HTB20^TM), Chago-K1 (National Cancer Institute, Thailand), HepG2 (ATCC® HB8065^TM), KATO-III (ATCC® HTB103^TM), and SW620 (ATCC® CCL227^TM). Additionally, human diploid lung fibroblast (WI-38, ATCC® CCL75^TM) was used as the normal cell line for comparison with the carcinoma cell lines. The culturing of these cell lines was derived in complete medium, including Roswell Park Memorial Institute medium (RPMI-1640), fetal bovine serum (5%, v/v), 25 mM of 4-(2-hydroxyethyl)-1-piperazineethanesulfonic acid (HEPES), sodium bicarbonate (0.25%, w/v), and kanamycin (100 μg/mL). Doxorubicin was used as a positive control. Each well plate contained 198 μL of culture medium of cell lines and was incubated with 5% CO2 atmosphere for 24 h at 37 °C. Then, the culture cells were treated with 2 μL/well of the sample and incubated for 72 h at 37 °C. MTT solution (2 μL, 5 mg/mL in normal saline) was added into each well, and the plates were incubated for an additional 4 h. The supernatant was aspirated out. After that, a mixture of 25 μL of 0.1 M glycine and 150 μL of DMSO was added. The plates were shaken to dissolve the purple-blue crystal of formazan. Then, the absorbance was determined by a microplate reader at 540 nm. The relative cell survival as a percentage of the control (DMSO), which was set at 100%, was calculated using the following formula:(5) The cell survival (%)=[As/Ac] × 100. where As is the absorbance of the test sample and Ac is the absorbance of […].

[4] = system: KATO-III gastric carcinoma cell line; assay: MTT cytotoxicity assay, KATO-III; type: cell-based; details: Homo sapiens, 72 h
Method: as §1

[5] = system: BT474 breast carcinoma cell line; assay: MTT cytotoxicity assay, BT474; type: cell-based; details: Homo sapiens, BT-474, 72 h
Method: as §1

[6] = FRAP assay (ferric reducing antioxidant power); details: FRAP value, expressed as ferrous sulphate equivalent, mean ± SD of three replicates
Method: FRAP assay was conducted using a modified version of a method originally reported in an earlier study. The FRAP reagent contained 25 mL of 0.3 M acetate buffer (pH 3.6), 2.5 mL of 20 mM ferric chloride solution, and 2.5 mL of 10 mM 2,4,6-tris(2-pyridyl)-1,3,5-triazine and was brought to a final volume of 50 mL using 40 mM HCl solution. Then, the FRAP reagent was put into a water bath for 30 min at 50 °C. Next, 600 μL of FRAP reagent was added to 25 μL of the sample (100 mg/mL). The absorbance was recorded at 595 nm after 4 min of incubation using a spectrophotometer. Trolox was used as a positive control. The ferric reducing capacity was expressed as a ferrous sulphate equivalent.

Mushroom tyrosinase [7] = target: T1, Mushroom tyrosinase (Agaricus bisporus, UniProt C7FF04); assay: Kinetic analysis of tyrosinase inhibition, diphenolase activity (Lineweaver-Burk plots); type: biochemical; details: L-DOPA 0-200 μM, samples 20-1000 μM
T1 sequence (G1K3P4 entry or part of it): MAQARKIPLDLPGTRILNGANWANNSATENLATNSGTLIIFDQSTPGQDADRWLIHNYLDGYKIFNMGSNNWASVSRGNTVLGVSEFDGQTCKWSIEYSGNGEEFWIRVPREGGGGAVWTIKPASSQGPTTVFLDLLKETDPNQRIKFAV
T1 sequence (C7FF04 1-392): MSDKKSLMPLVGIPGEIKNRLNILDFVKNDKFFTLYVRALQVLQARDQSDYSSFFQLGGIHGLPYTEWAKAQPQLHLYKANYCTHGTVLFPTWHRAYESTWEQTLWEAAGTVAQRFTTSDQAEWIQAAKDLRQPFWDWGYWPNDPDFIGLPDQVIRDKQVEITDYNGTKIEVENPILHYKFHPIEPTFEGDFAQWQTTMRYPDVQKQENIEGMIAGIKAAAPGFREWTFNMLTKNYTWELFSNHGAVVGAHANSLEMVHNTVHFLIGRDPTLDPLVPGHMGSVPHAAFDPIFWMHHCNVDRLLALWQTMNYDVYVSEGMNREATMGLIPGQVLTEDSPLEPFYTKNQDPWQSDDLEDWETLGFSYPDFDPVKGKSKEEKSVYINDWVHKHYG
Method: (§2) The kinetic analysis of tyrosinase inhibitory activity was performed with respect to both monophenolase and diphenolase activities. The concentration ranges of the samples were 20–1000 μM. Both L-tyrosine and L-DOPA were concentrated at 0, 25, 50, 100, and 200 μM, respectively. The inhibitory kinetics of the samples were analyzed using Lineweaver–Burk plots.

[8] = system: WI-38 human diploid lung fibroblast; assay: MTT cytotoxicity assay, WI-38 normal cell line; type: cell-based; details: 72 h
Method: as §1

Mushroom tyrosinase [9] = target: T1, Mushroom tyrosinase; assay: Kinetic analysis of tyrosinase inhibition, monophenolase activity (Lineweaver-Burk plots); type: biochemical; details: L-tyrosine 0-200 μM, samples 20-1000 μM
Method: as §2

[10] = system: Chago-K1 lung bronchus carcinoma cell line; assay: MTT cytotoxicity assay, Chago-K1; type: cell-based; details: Homo sapiens, ChaGo-K-1, 72 h
Method: as §1

[11] = system: SW620 colon carcinoma cell line; assay: MTT cytotoxicity assay, SW620; type: cell-based; details: Homo sapiens, SW-620, 72 h
Method: as §1

[12] = set-up: method as in PMID 30364385; details: read-out: IC50 for DPPH; cited from earlier work
tyrosinase = target: tyrosinase; set-up: method as in PMID 30364385; details: L-DOPA as substrate; read-out: IC50, antityrosinase; cited from earlier work
[13] = set-up: method as in PMID 30364385; details: read-out: IC50 for ABTS; cited from earlier work

IC50 [1] | IC50 [2] | Type of inhibition, diphenolase activity (Mushroom tyrosinase [7]) | Type of inhibition, monophenolase activity (Mushroom tyrosinase [9]) | Structure (SMILES) | IC50 [3] | IC50 [4] | IC50 [5] | FRAP [6] | IC50 [8] | IC50 [10] | IC50 [11] | FRAP ([6]; listed as 6-hydroxyflavanone (3)) | FRAP ([6]; listed as (+)-dihydrokaempferol (4)) | melting point | IC50 [12] | IC50 (tyrosinase) | IC50 [13]
3.21 ± 0.7 µM | 225.5 ± 0.95 µM | competitive | competitive | O=C1CC(c2ccccc2)Oc2ccc(O)cc21 (stereo not drawn) [6-Hydroxyflavanone (3), 6-hydroxyflavanone] | 65.8 ± 2.37 µM | 88.8 ± 3.7 µM | 86.16 ± 0.45 µM | 4.12 ± 0.12 ^c μM | > 416 µM | 57.7 ± 1.08 µM | 82.8 ± 1.33 µM | 4.12 ± 0.12 µM |  |  |  |  | 
2.21 ± 0.77 µM | 214.8 ± 0.51 µM | competitive | competitive | O=C1c2c(O)cc(O)cc2O[C@H](c2ccc(O)cc2)[C@H]1O [(+)-Dihydrokaempferol (4), (+)-dihydrokaempferol] | 13.7 ± 0.38 µM | 39.79 ± 0.38 µM | 11.7 ± 0.42 µM | 6.23 ± 0.10 ^d μM | > 347 µM | 12.3 ± 0.73 µM | 41.1 ± 1.08 µM |  | 6.23 ± 0.10 µM |  |  |  | 
16.3 ± 0.33 µM | 630.84 ± 0.54 µM | uncompetitive | noncompetitive | CC1(C)CC[C@]2(C)CC=C3[C@]4(C)CC[C@H]5C(C)(C)[C@@H](O)CC[C@]5(C)[C@H]4CC[C@@]3(C)[C@@H]2C1 [Taraxerol (6), taraxerol] | > 235 µM | > 235 µM | > 235 µM | 1.46 ± 0.11 ^a μM | > 235 µM | > 235 µM | > 235 µM |  |  |  |  |  | 

The next lines start with the molecule.

Structure (SMILES) | IC50 [1] | IC50 [2] | Type of inhibition, diphenolase activity (Mushroom tyrosinase [7]) | Type of inhibition, monophenolase activity (Mushroom tyrosinase [9]) | IC50 [3] | IC50 [4] | IC50 [5] | FRAP [6] | IC50 [8] | IC50 [10] | IC50 [11] | FRAP ([6]; listed as 6-hydroxyflavanone (3)) | FRAP ([6]; listed as (+)-dihydrokaempferol (4)) | melting point | IC50 [12] | IC50 (tyrosinase) | IC50 [13]
O=C(O)c1ccc(O)c(O)c1 [3,4-Dihydroxybenzoic acid (5), 3,4-dihydroxybenzoic acid] | 4.71 ± 0.1 µM | 290.1 ± 0.95 µM | competitive | competitive | 364.7 ± 2.27 µM | 507.5 ± 4.61 µM | 85.2 ± 3.96 µM | 3.00 ± 0.40 ^b μM | > 649 µM | 79.2 ± 4.02 µM | 591.4 ± 0.71 µM |  |  |  |  |  | 
COc1cccc2c1C(=O)c1c(O)c3c(c(O)c1C2=O)C[C@@](O)(C(=O)CO)C[C@@H]3O[C@H]1C[C@H](N)[C@H](O)[C@H](C)O1 [Doxorubicin, reference compound] |  |  |  |  | 2.7 ± 0.83 µM | 1.78 ± 0.83 µM | 1.21 ± 0.2 µM |  | > 184 µM | 1.58 ± 0.4 µM | 1.82 ± 0.39 µM |  |  |  |  |  | 
C=C(C)[C@@H]1CC[C@]2(C)CC[C@]3(C)C(CCC4[C@@]5(C)CCC(OC(C)=O)C(C)(C)C5CC[C@]43C)C12 (stereo partly drawn) [Lupeol acetate (8), lupeol acetate] | 87.1 ± 0.31 µM | 669.62 ± 0.42 µM | uncompetitive | mixed | > 213 µM | 136.7 ± 0.66 µM | 60.2 ± 0.9 µM | 1.28 ± 0.30 ^a μM | > 213 µM | 199.9 ± 0.3 µM | 182.7 ± 1.51 µM |  |  | 210 to 212 °C |  |  | 
CO[C@H]1CC[C@@]2(C)C(CC[C@@]3(C)C4=CC[C@]5(C)CCC(C)(C)CC5[C@@]4(C)CCC23)C1(C)C (stereo partly drawn) [Taraxerol methyl ether (1), taraxerol methyl ether] | 77.31 ± 0.6 µM | 520.22 ± 0.3 µM | noncompetitive | noncompetitive | > 227 µM | > 227 µM | 185 ± 1.61 µM | 1.31 ± 0.16 ^a μM | > 227 µM | > 227 µM | > 227 µM |  |  | 278 to 280 °C |  |  | 
CC1(C)CC[C@]2(C)CC=C3[C@]4(C)CC[C@H]5C(C)(C)C(=O)CC[C@]5(C)[C@H]4CC[C@@]3(C)[C@@H]2C1 [Taraxerone (7), taraxerone] | 10.2 ± 0.4 µM | 334.8 ± 0.99 µM | mixed | mixed | 20.4 ± 1.43 µM | 26.5 ± 0.57 µM | 19.2 ± 0.4 µM | 1.12 ± 0.13 ^a μM | > 234 µM | 26.8 ± 0.97 µM | > 234 µM |  |  |  |  |  | 
Cc1c(C)c2c(c(C)c1O)CCC(C)(C(=O)O)O2 (stereo not drawn) [Trolox, reference compound] | 1.92 ± 0.22 µM | 188.4 ± 0.43 µM |  |  |  |  |  | 6.10 ± 0.28 μM and 6.10 ± 0.28 ^d μM |  |  |  |  |  |  |  |  | 
O=C1c2c(O)cc(O)cc2O[C@H](c2cc(O)c(O)c(O)c2)[C@H]1O [dihydromyricetin] |  |  |  |  |  |  |  |  |  |  |  |  |  |  | 12.4 µM | 3.33 µM | 3.41 µM
